Experimental findings from the METLIN SMRT retention time set (Domingo-Almenara et al. 2019) are described below.

A short description of this series: gradient 5% acetonitrile 3 min, to 50% in 2 min, to 85% in 15 min, held 3 min, 100 µL/min. The conditions noted are these: column: Zorbax Extend-C18 2.1 x 50 mm; eluents: water / acetonitrile, 0.1% formic acid. In a few lines: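 A Zorbax Extend-C18 column (2.1 × 50 mm, 1.8 μm) run at 100 μL/min with water and acetonitrile, both containing 0.1% formic acid, separated mixtures of ~100 pure standards. The HPLC was coupled to a quadrupole time-of-flight mass spectrometer operated in positive and negative ionization mode, with dead and dwell volumes of 40 μL and 900 μL. Each retention time was taken from a computationally picked adduct peak that was then manually inspected.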
On to `CC(=O)N1CCN(c2ccc(NC(=O)c3ccccc3Br)cc2)CC1`, for which the RP-LC retention time was 646 s.
Regarding `Cc1ccc(-c2nc(C3CC(=O)N(c4ccc(Cl)cc4)C3)no2)c(C)c1` (stereo unspecified), the RP-LC retention time was 994 s.
For `O=c1n(Cc2nc(-c3ccc4c(c3)OCO4)no2)nc2ccc(-c3ccccc3)nn12` the value was 843 s; for `CCN1CCC2(CC1)OC(=O)C(C)=C2C(=O)Nc1cc(Cl)c(OC)cc1OC`, 643 s; for `Cc1nc(-c2cccc(F)c2)sc1C(=O)NC(C)C`, 936 s.
With `COc1ccc(S(=O)(=O)N2CCc3c(C(=O)NCCN(C)C)cccc32)cc1`, the RP-LC retention time amounted to 635 s.
Take `O=C(CC(=O)N1CCN(C2CCCCC2)CC1)Nc1ccc2nc3n(c(=O)c2c1)CCCCC3`: the RP-LC retention time stood at 554 s.
Regarding `CC(Cc1ccco1)NC(=O)C1CCN(S(C)(=O)=O)CC1` (stereo unspecified), the RP-LC retention time was 632 s.
As to `CC(C)NC(=O)CN1C(=O)C2CCCCN2c2ccc(C(=O)N3CCCCC3)cc21` (stereo unspecified), the RP-LC retention time stood at 735 s.
In turn, `Cc1ccc(-c2nc(C)cc(OCC(=O)Nc3ccccc3C)n2)cc1` returned an RP-LC retention time of 1030 s.
With `Cc1ccc(S(=O)(=O)N2CCC(n3c(-c4ccco4)nc4cccnc43)C2)cc1F` (stereo unspecified), the RP-LC retention time worked out at 954 s.
Compound `O=C(Cn1nc(N2CCSCC2)c2ccccc2c1=O)Nc1ccccc1` gave an RP-LC retention time of 890 s.
The compound `Cc1cc(C(=O)NCc2ccc(C)o2)c2c(C)nn(-c3ccccc3)c2n1` showed an RP-LC retention time of 964 s.
Take `Cc1cc(=O)n(CC(=O)Nc2ccccc2Cl)c(N2CCOCC2)n1`: the RP-LC retention time was 863 s.
Regarding `O=C(CN1CCc2ccccc2C1C(=O)N1CCCC1)NCc1cccc(C(F)(F)F)c1` (stereo unspecified), the RP-LC retention time was 838 s.
Under `Cc1nc2c(NS(=O)(=O)c3ccc(Cl)cc3)cccn2n1` stands 778 s.
The compound `COc1ccc(C(CC(=O)N2CCCCCC2)N2Cc3ccccc3C2=O)cc1OC` (stereo unspecified) yielded an RP-LC retention time of 785 s.
For the compound `CN1CCN(c2ncncc2N2CCC(C(=O)NCc3ccc(F)cc3Cl)CC2)CC1`, the RP-LC retention time was determined as 572 s.
On to `CCc1cc(C(=O)Nc2ccccc2F)nc2ccnn12`, for which the RP-LC retention time was 1060 s.
Regarding `CCn1cc(C(=O)Nc2ccc(C)cc2C)c2cccnc21`, the RP-LC retention time was determined as 962 s.
For the compound `Cc1ccc(S(=O)(=O)Nc2cccc(-c3cn4ccccc4n3)c2)cc1[N+](=O)[O-]`, the RP-LC retention time worked out at 681 s.
`O=C(O)C1CCc2sc(C(=O)N3CCCCCC3)cc2C1` (stereo unspecified) showed an RP-LC retention time of 746 s.
With `Clc1ccccc1-c1ccc(CNc2ncn[nH]2)o1`, the RP-LC retention time turned out to be 676 s.
With `O=C(CN1CCc2[nH]c3c(Cl)cccc3c(=O)c2C1)NCc1ccccc1`, the RP-LC retention time came out at 598 s.
Under `O=C(C1CCC1)N1CCc2sc(S(=O)(=O)NCc3ccc4c(c3)OCO4)cc2C1` stands 836 s; under `CCC(C)NC(=O)Cn1ccn2nc(-c3ccc(F)cc3)c(CO)c2c1=O` (stereo unspecified), 725 s; under `Cc1ccc(CNC2=NCCNC23CCN(S(=O)(=O)c2ccc(Cl)cc2)CC3)cc1`, 778 s.
In the case of `CCN(CCNC(=O)C1CCN(c2nnc3ccc(Cl)cn23)CC1)c1ccccc1`, the RP-LC retention time stood at 629 s.
For the compound `O=C(Nc1cccc(Cl)c1)C1CCCN(S(=O)(=O)c2c[nH]c(C(=O)N3CCCCCC3)c2)C1` (stereo unspecified), the RP-LC retention time came out at 964 s.
For the compound `CN1C(=O)C(CC(=O)NC2CCCC2)Sc2ncccc21` (stereo unspecified), the RP-LC retention time was found to be 668 s.
As to `O=C(Cc1csc(NC(=O)c2ccsc2)n1)NCc1nc2ccccc2[nH]1`, the RP-LC retention time is 573 s.
For `CCOC(=O)C1=NN(c2ccccc2)CC1C(=O)OC` (stereo unspecified) the value was 917 s.
`CCc1cc(=O)n(CC(=O)Nc2cc(C)ccc2C)c(N2CCOCC2)n1`: the RP-LC retention time turned out to be 747 s.
Compound `COc1nn(C)cc1C(=O)Nc1nnc(C)s1` returned an RP-LC retention time of 583 s.
With `CC(C)n1cc(S(=O)(=O)N2CCN(c3ccccc3F)CC2)c2cccnc21`, the RP-LC retention time is 1100 s.
Regarding `O=C(NCCN1CCCC1)c1cc2n(n1)CCCN(Cc1ccc(Cl)cc1)C2=O`, the RP-LC retention time was found to be 627 s.
For `Cc1ccc(-c2cn3c(CC(=O)NC4CCCCC4)csc3n2)cc1C` the value was 829 s.
In turn, `CC(=O)c1cccc(NC(=O)c2cn(C)cc3c(=O)n(-c4ccccc4)nc2-3)c1` gave an RP-LC retention time of 826 s.
Compound `CCOc1cccc2c1OC1(C)CC2NC(=O)N1c1cccc(C(=O)NCc2cccs2)c1` (stereo unspecified) registered an RP-LC retention time of 790 s.
Under `O=C(CCn1cnc2cc(-c3noc(Cc4cccc(F)c4)n3)ccc21)N1CCCC1` stands 726 s; under `CCN1CCN(c2cc(C)c3cc(NC(=S)NCc4ccccc4OC)ccc3n2)CC1`, 605 s.
For `Cc1nc(-c2cn(C(C)C)c3ncccc23)sc1C(=O)N1CCC(C)CC1` the value was 999 s; for `Cc1ccc(NC(=O)N2CCCC(C)(C(=O)NCc3ccccc3C)C2)c(Cl)c1` (stereo unspecified), 984 s.
`Cc1sc2ccn(CC(C)C)c(=O)c2c1C(=O)NCCN1CCCCC1` returned an RP-LC retention time of 639 s.
`COc1cccc(S(=O)(=O)Nc2ccc(C(=O)Nc3ccncc3)cc2)c1` showed an RP-LC retention time of 578 s.
In turn, `CCCCN(CC)c1nc(-c2ccc(C)cc2)nc2ccccc12` had an RP-LC retention time of 941 s.
Consider `O=C(Nc1ccc(Cl)c(N2CCCS2(=O)=O)c1)c1ccno1`, for which the RP-LC retention time came out at 676 s.
Under `Cc1nn(-c2ccc(C(=O)NC(C)C)cc2)c2c1C(=O)CC(C)(C)C2` stands 775 s.
Consider `Cc1noc(C)c1CC(=O)NCc1cc(-c2ccc3c(c2)OCO3)on1`, for which the RP-LC retention time was found to be 689 s.
With `O=C(COc1ccc(Cl)cc1Cl)Nc1nnc(-c2ccncc2)o1`, the RP-LC retention time stood at 669 s.
`CCn1c(SCC(=O)Nc2nc(-c3ccccc3)cs2)nnc1-c1nonc1NC(C)=O`: the RP-LC retention time worked out at 897 s.
Turning to `CN1CCCn2nc(C3CCN(C(=O)CC(C)(C)C)CC3)cc2C1=O`, the RP-LC retention time is 654 s.
`Cc1cc(F)ccc1NC(=O)Cn1nc2cc(-c3ccccc3)nc(C)n2c1=O` came in with an RP-LC retention time of 909 s.
Under `COCCN1C(=O)CCc2cc(NC(=O)Cc3ccc(Cl)cc3)ccc21` stands 806 s; under `CC(C)CN1C(=O)c2cccn2CC1CNC(=O)CC1CCCC1` (stereo unspecified), 784 s.
For `CCOCCOC1CCN(S(=O)(=O)c2cccc(OC)c2)CC1` the value was 881 s.
Compound `CCCNC(=O)C1CCCN(c2ccc(SCC(=O)Nc3ccc(C)cc3)nn2)C1` (stereo unspecified) displayed an RP-LC retention time of 686 s.
In turn, `CC(O)(CNS(=O)(=O)c1cccnc1)c1ccco1` (stereo unspecified) returned an RP-LC retention time of 604 s.
Under `O=C(NCCc1ccccc1)N1CCC(c2noc(-c3ccncc3)n2)C1` (stereo unspecified) stands 731 s; under `COc1ccccc1NC(=O)c1cc2c(=O)oc3ccccc3c2n1C`, 981 s; under `NC(=O)c1ccccc1OCC(=O)Nc1ccc(Cl)c(Cl)c1`, 895 s.
Turning to `CSc1cccc(NC(=O)Cn2c(C)nc3c(c2=O)CN(Cc2ccccc2)CC3)c1`, the RP-LC retention time was determined as 587 s.
`CCn1cnc(S(=O)(=O)N2CCCC(C(=O)Nc3ccc(C)cc3C)C2)c1` (stereo unspecified) had an RP-LC retention time of 753 s.
Under `Cc1ccc(C)c(NC(=O)N2CCCN(c3ccc(=O)n(-c4ccccc4)n3)CC2)c1` stands 745 s.
The compound `Cc1cccc(NC(=O)C2(C)Oc3cccnc3N(C)C2=O)c1C` (stereo unspecified) displayed an RP-LC retention time of 808 s.
Under `Cc1cc(C)cc(NC(=O)Nc2nccn(-c3cc(Cl)ccc3C)c2=O)c1` stands 1150 s; under `CCOC(=O)c1nc(N2CCN(c3ccccn3)CC2)c2c(C)noc2n1`, 596 s.
Turning to `CC(NC(=O)C1CCN(c2cncnc2N2CCCC2)CC1)c1ccc(F)cc1` (stereo unspecified), the RP-LC retention time was found to be 648 s.
For `CSc1cccc(NC(=O)Cn2cnc3c(-c4ccncc4)nsc3c2=O)c1`, the RP-LC retention time came to 668 s.
Turning to `CCCC1NN(C)C2C(=O)NC(c3cc(S(=O)(=O)N4CCN(C)CC4)ccc3OCC)NC12` (stereo unspecified), the RP-LC retention time was 722 s.
Take `O=C(Cc1csc(-c2ccccc2)n1)Nc1nc(-c2ccc(Cl)cc2)cs1`: the RP-LC retention time came to 1210 s.
For the compound `COC(=O)c1sccc1NC(=O)Cn1c(C)cc(C)c(-c2nc(-c3ccc(F)cc3)no2)c1=O`, the RP-LC retention time amounted to 1070 s.
Consider `CCSc1nc2nc3c(cn2n1)C(=O)CCC3`, for which the RP-LC retention time stood at 723 s.
For `CCn1c(=O)sc2cc(S(=O)(=O)N3CCC(C(=O)Nc4cccc(SC)c4)CC3)ccc21` the value was 975 s; for `O=C(NC1CCCC1)C1CCN(C(=O)c2cc(-c3ccncc3)n[nH]2)CC1`, 582 s; for `CC(C)CNC(=O)N1CCCC(Cc2nncn2C)C1` (stereo unspecified), 550 s.
`CCS(=O)(=O)N1CC(=O)N(c2cccc(F)c2)C(C)(C(=O)NC2CCCCC2)C1` (stereo unspecified) came in with an RP-LC retention time of 817 s.
Turning to `O=C(NCc1ccccc1)Nc1ccc(-c2nc(-c3ccccc3)co2)cc1`, the RP-LC retention time turned out to be 1070 s.
Turning to `O=S(=O)(NCCC1=CCCCC1)c1ccc(-c2cc(C(F)(F)F)on2)o1`, the RP-LC retention time was determined as 1240 s.
For `Cc1noc(-c2ccc(OC3CN(C(=O)Cc4ccsc4)C3)cc2)n1` the value was 826 s.
The compound `COc1ccc(NC(=O)Nc2cc(-c3cn4cccnc4n3)ccc2C)cc1` gave an RP-LC retention time of 590 s.
